The record followed here is patent publication US10233179B2, “Thiazoles and uses thereof” (AbbVie Inc., priority 2013, dated 2019).

For data set [1], the system named is RSV (Group A, Long Strain). Description: Antiviral cytopathic effect (CPE) protection assay, MTT readout. The format is cell-based. The settings on record: human respiratory syncytial virus, 96 h; HEp-2 cells, 0.2 MOI RSV, 4 days incubation, protection from CPE by MTT. As to the method: HEp-2 cells and RSV (Group A, Long Strain) were obtained from the American Type Culture Collection (Manassas, Va.).
A cytopathic effect (CPE) protection assay was performed to determine the ability of a compound to protect the cells from viral infection and thus the CPE induced by viral infection. 96-Well plates were first seeded with 3×10^3 HEp-2 cells per well in Dulbecco's modified Eagle's medium (DMEM) containing 10% fetal bovine serum (FBS). One day after the cells were seeded, they were preincubated with serial dilutions of compounds prepared in 100 μL assay medium (DMEM mixed with F12 medium at a 1:1 ratio, supplemented with 2% FBS and 1 mM sodium pyruvate) for 1 hour at 37° C. 100 μL of assay medium containing 0.2 multiplicity of infection (MOI) of RSV was then added to each well of cells. In addition to wells containing infected cells incubated with compounds, each plate also contained replicates of two kinds of controls: (1) Virus control contained cells infected with 0.2 MOI of RSV in assay medium, (2) Uninfected cell control contained cells incubated with assay medium only. After 4 days of incubation at 37° C., the viability of cells was assessed using MTT (Thiazolyl blue tetrazolium bromide, Sigma). A stock solution of MTT, at a concentration of 4 mg/mL in phosphate-buffered saline, was added to all wells at 25 μL per well. Plates were further incubated for 4 hours, and each well was then treated with 50 μL of a solution containing 20% sodium dodecyl sulfate (SDS) and 0.02 N HCl. After an overnight incubation, the plates were measured on a BioTek® microtiter plate reader at wavelengths of 570 nm and 650 nm. The MTT detection is based on the fact that viable (uninfected) cells can reduce the tetrazolium salts into colored formazan products, which can then be quantitated by spectrometry. Based on the spectrometric absorbance of each sample, the percent of protection from CPE, which is an indicator of protection from viral infection, can be calculated for each compound and the 50% effective concentrations (EC50) can be calculated using a nonlinear regression curve fitting equation provided by the GraphPad Prism® 4 software.
Compounds were tested to determine both their antiviral and toxicity to determine their therapeutic window. Determination of the EC50 and TD50 of these active compounds were repeated one additional time to confirm the window.
For orientation: Damage to the host cells serves as the signal in cytopathic effect assays.

In another data set the test system is HEp-2 cells. Description: Cytotoxicity assay (MTT) in parallel with the antiviral assay. The format is cell-based. The settings on record: uninfected HEp-2 cells, 4 days incubation, MTT viability. The procedure: HEp-2 cells and RSV (Group A, Long Strain) were obtained from the American Type Culture Collection (Manassas, Va.). Cytotoxicity of the compounds was determined in experiments done in parallel with the antiviral assays. To do this, 100 μL of assay medium was added to the wells of HEp-2 cells pretreated with 100 μL serially diluted compounds as described above. After 4 days of incubation, the viability of the cells was determined by the MTT assay in the same way as detailed in the “Antiviral Assay” method. Results were expressed as 50% toxicity dose (TD50) values. Compounds were tested to determine both their antiviral and toxicity to determine their therapeutic window. Determination of the EC50 and TD50 of these active compounds were repeated one additional time to confirm the window.

In general, EC50 refers to the concentration needed to bring the measured effect to its halfway point. High values mean a need for much substance, low ones an effect from little substance.

For the compound `Cc1c(C(C)N(Cc2cccn2-c2nccs2)Cc2cccn2-c2nccs2)cnn1-c1cccc(F)c1` (racemic) [Example 1, 1-[1-(3-fluorophenyl)-5-methyl-1H-pyrazol-4-yl]-N,N-bis{[1-(1,3-thiazol-2-yl)-1H-pyrrol-2-yl]methyl}ethanamine], a half-maximal response in data set [1] (EC50) required 120 nM. The “MTT TD50” value with HEp-2 cells is 11 µM.
On the same counts, the results for `Cc1c([C@H](C)N(Cc2cccn2-c2nccs2)Cc2cccn2-c2nccs2)cnn1-c1cccc(F)c1` [Example 2, (1S)-1-[1-(3-fluorophenyl)-5-methyl-1H-pyrazol-4-yl]-N,N-bis{[1-(1,3-thiazol-2-yl)-1H-pyrrol-2-yl]methyl}ethanamine] are 71 nM and >32 µM.
On the same counts, the results for `Cc1c([C@@H](C)N(Cc2cccn2-c2nccs2)Cc2cccn2-c2nccs2)cnn1-c1cccc(F)c1` [Example 3, (1R)-1-[1-(3-fluorophenyl)-5-methyl-1H-pyrazol-4-yl]-N,N-bis{[1-(1,3-thiazol-2-yl)-1H-pyrrol-2-yl]methyl}ethanamine] are 960 nM and >32 µM.
On to `COc1ccccc1CN(Cc1cccn1-c1nccs1)C(C)c1cnn(-c2cccc(F)c2)c1C` (stereo not shown) [Example 4, 1-[1-(3-fluorophenyl)-5-methyl-1H-pyrazol-4-yl]-N-(2-methoxybenzyl)-N-{[1-(1,3-thiazol-2-yl)-1H-pyrrol-2-yl]methyl}ethanamine], for which the concentration giving a half-maximal response (EC50) in data set [1] is > 480 nM. For the same compound, the “MTT TD50” value in the data set with HEp-2 cells was found to be 0.48 µM.
Taken in the same sequence, the figures for `Cc1c(C(C)N(Cc2ccc(Cl)cc2-c2ccnc(C(F)(F)F)n2)Cc2cccn2-c2nccs2)cnn1-c1cccc(F)c1` (stereo not shown) [Example 5, N-{4-chloro-2-[2-(trifluoromethyl)pyrimidin-4-yl]benzyl}-1-[1-(3-fluorophenyl)-5-methyl-1H-pyrazol-4-yl]-N-{[1-(1,3-thiazol-2-yl)-1H-pyrrol-2-yl]methyl}ethanamine] were > 110 nM and 0.11 µM.
In the case of `Cc1cccc(C)c1-n1ccc(CN(Cc2cccn2-c2nccs2)C(C)c2cnn(-c3cccc(F)c3)c2C)c1` (stereo not shown) [Example 6, N-{[1-(2,6-dimethylphenyl)-1H-pyrrol-3-yl]methyl}-1-[1-(3-fluorophenyl)-5-methyl-1H-pyrazol-4-yl]-N-{[1-(1,3-thiazol-2-yl)-1H-pyrrol-2-yl]methyl}ethanamine], in data set [1], the concentration giving a half-maximal response (EC50) was > 570 nM. The “MTT TD50” value in the data set with HEp-2 cells was 0.57 µM.
In data set [1], `Cc1c(C(C)N(Cc2ncc(-c3ccccc3)n2C)Cc2ncc(-c3ccccc3)n2C)cnn1-c1cccc(F)c1` (stereo not shown) [Example 7, 1-[1-(3-fluorophenyl)-5-methyl-1H-pyrazol-4-yl]-N,N-bis[(1-methyl-5-phenyl-1H-imidazol-2-yl)methyl]ethanamine] registered a concentration giving a half-maximal response (EC50) of 320 nM. The “MTT TD50” value with HEp-2 cells was 5.2 µM.
Taken in the same sequence, the figures for `COc1ccc(CN(Cc2cccn2-c2nncs2)Cc2cccn2-c2nncs2)c(OC)c1` [Example 8, 1-(2,4-dimethoxyphenyl)-N,N-bis{[1-(1,3,4-thiadiazol-2-yl)-1H-pyrrol-2-yl]methyl}methanamine] were 240 nM and 22 µM.
Taken in the same sequence, the figures for `Cn1nccc1N(Cc1cccn1-c1nncs1)Cc1cccn1-c1nncs1` [Example 9, 1-methyl-N,N-bis{[1-(1,3,4-thiadiazol-2-yl)-1H-pyrrol-2-yl]methyl}-1H-pyrazol-5-amine] were 4900 nM and >32 µM.
On the same counts, the results for `c1ccc(CN(Cc2cccn2-c2nncs2)Cc2cccn2-c2nncs2)cc1` [Example 10, 1-phenyl-N,N-bis{[1-(1,3,4-thiadiazol-2-yl)-1H-pyrrol-2-yl]methyl}methanamine] are 520 nM and 97 µM.
The compound `c1cc(CN(Cc2cccn2-c2nncs2)CC2C[C@H]3CC[C@@H]2C3)n(-c2nncs2)c1` (stereo partly drawn) [Example 11, 1-[(1R,4S)-bicyclo[2.2.1]hept-2-yl]-N,N-bis{[1-(1,3,4-thiadiazol-2-yl)-1H-pyrrol-2-yl]methyl}methanamine] returned an EC50 in data set [1] of 560 nM. The “MTT TD50” value in the data set on HEp-2 cells worked out at 26 µM.
